According to ChEMBL document CHEMBL1201862, “PubChem BioAssay data set” (2004):
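Cells were grown in 96-well plates and exposed to each compound for 48 hours at five concentrations; endpoints were interpolated linearly between bracketing concentrations, or set to the highest concentration if not reached. GI50 marks 50% less growth.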 The source made the active and inactive calls. Rule as the data show it: active = GI50 up to about 1.1 µM and inactive = higher.

How the values were obtained:
Test in all cases: growth of human tumour cells (NCI), 48 h
SK-MEL-2 = test system: SK-MEL-2
HOP-62 = test system: HOP-62
MDA-MB-231 = test system: MDA-MB-231
EKVX = test system: EKVX
CAKI-1 = test system: CAKI-1
A498 = test system: A498
MDA-N = test system: MDA-N
HT-29 = test system: HT-29
OVCAR-3 = test system: OVCAR-3
HL-60 = test system: HL-60
SF-268 = test system: SF-268
UACC-257 = test system: UACC-257
IGROV-1 = test system: IGROV-1
OVCAR-5 = test system: OVCAR-5
RPMI-8226 = test system: RPMI-8226
HCC 2998 = test system: HCC 2998
MOLT-4 = test system: MOLT-4
NCI/ADR-RES = test system: NCI/ADR-RES
NCI-H460 = test system: NCI-H460
RXF 393 = test system: RXF 393

Measured: GI50

O=C(NNC(=S)Nc1ccccc1)c1csc(NC(=S)NC2CCCCC2)n1
inactive: SK-MEL-2 > 100 µM | HOP-62 > 100 µM | MDA-MB-231 46.3 µM | EKVX 20.1 µM | CAKI-1 > 100 µM | A498 > 100 µM | MDA-N 50.8 µM | HT-29 15.6 µM | OVCAR-3 87.5 µM | HL-60 > 100 µM | SF-268 99.3 µM | UACC-257 29 µM | IGROV-1 29.5 µM | OVCAR-5 > 100 µM | RPMI-8226 28.8 µM | HCC 2998 10.5 µM | MOLT-4 25.6 µM | NCI/ADR-RES 85.7 µM

COC(=O)Cn1cnc2c(Cl)nc(Nc3ccccc3)nc21
inactive: SK-MEL-2 16.4 µM | HOP-62 > 100 µM | MDA-MB-231 38 µM | EKVX 27 µM | A498 > 100 µM | MDA-N 30.8 µM | HT-29 > 100 µM | OVCAR-3 21.1 µM | HL-60 22.4 µM | SF-268 > 10 µM | UACC-257 68.7 µM | IGROV-1 20.8 µM | RPMI-8226 > 100 µM | HCC 2998 6.52 µM | MOLT-4 26.5 µM | NCI-H460 32.8 µM | RXF 393 36.6 µM | NCI/ADR-RES 73.3 µM

COc1cc(/C=C2\N=C(c3ccccc3)N(c3nc4c(OC)ccc(OC)c4s3)C2=O)ccc1O
inactive: SK-MEL-2 35.5 µM | HOP-62 90.8 µM | MDA-MB-231 45.7 µM | EKVX > 100 µM | CAKI-1 > 100 µM | A498 > 100 µM | MDA-N 24.1 µM | HT-29 > 100 µM | OVCAR-3 37.1 µM | HL-60 36.6 µM | SF-268 39.1 µM | UACC-257 38 µM | IGROV-1 46.8 µM | OVCAR-5 > 100 µM | RPMI-8226 23.1 µM | HCC 2998 33.8 µM | MOLT-4 16.7 µM | NCI-H460 51.4 µM | RXF 393 11.1 µM | NCI/ADR-RES > 100 µM

O=C1NC(=O)C(c2c[nH]c3ccccc23)=C1c1cn(C(c2ccccc2)(c2ccccc2)c2ccccc2)cn1
inactive: SK-MEL-2 11.2 µM | MDA-MB-231 12.8 µM | EKVX 4.19 µM | CAKI-1 35.4 µM | A498 5.32 µM | MDA-N 4.75 µM | HT-29 4.06 µM | OVCAR-3 6.76 µM | HL-60 2.9 µM | SF-268 11.7 µM | UACC-257 11.2 µM | IGROV-1 8.87 µM | OVCAR-5 8.73 µM | RPMI-8226 3.13 µM | HCC 2998 4.63 µM | MOLT-4 2.48 µM | NCI-H460 3.66 µM | RXF 393 4.52 µM | NCI/ADR-RES 4.29 µM

CCCC1(NC(=O)C(F)(F)F)CC(OC)OC2COC(c3ccccc3)OC21 (stereo unspecified)
inactive: SK-MEL-2 26.8 µM | HOP-62 > 100 µM | MDA-MB-231 95.1 µM | EKVX 36.3 µM | CAKI-1 6.31 µM | A498 > 100 µM | MDA-N 59.4 µM | OVCAR-3 > 100 µM | HL-60 27.1 µM | SF-268 > 100 µM | UACC-257 63.1 µM | IGROV-1 > 100 µM | OVCAR-5 > 100 µM | RPMI-8226 > 10 µM | HCC 2998 52.2 µM | MOLT-4 26.2 µM | NCI-H460 34 µM | RXF 393 94.6 µM | NCI/ADR-RES 29.3 µM

COC1=NC(NC2OCC(O)C(O)C2O)=C(NC(C)=O)CN1C (stereo unspecified)
inactive: SK-MEL-2 > 100 µM | MDA-MB-231 > 100 µM | EKVX > 100 µM | CAKI-1 > 100 µM | A498 > 100 µM | MDA-N > 100 µM | HT-29 > 100 µM | OVCAR-3 > 100 µM | HL-60 > 100 µM | SF-268 > 100 µM | OVCAR-5 > 100 µM | RPMI-8226 > 100 µM | HCC 2998 > 100 µM | MOLT-4 > 100 µM | NCI-H460 > 100 µM | RXF 393 > 100 µM | NCI/ADR-RES > 100 µM

Cc1nnc2sc(-c3ccc([N+](=O)[O-])o3)nn12
inactive: SK-MEL-2 10.4 µM | HOP-62 15.2 µM | MDA-MB-231 14 µM | EKVX 20.5 µM | CAKI-1 10 µM | A498 45.5 µM | MDA-N 5.96 µM | HT-29 12.9 µM | OVCAR-3 12.8 µM | HL-60 2.47 µM | SF-268 13.2 µM | UACC-257 12.7 µM | IGROV-1 15.7 µM | OVCAR-5 18.5 µM | RPMI-8226 10.5 µM | HCC 2998 12.5 µM | MOLT-4 3.15 µM | NCI-H460 17.9 µM | RXF 393 11.6 µM | NCI/ADR-RES 16.4 µM
